These results are taken from publication PMC8787434, “Discovery of Novel GR Ligands toward Druggable GR Antagonist Conformations Identified by MD Simulations and Markov State Model Analysis” (Advanced Science, 2021).

Experiment [1] addresses T1, GR (LanthaScreen TR-FRET GR Competitive Binding Assay) (Homo sapiens, UniProt P04150).
T1 construct: gene NR3C1
T1 sequence (P04150 521-777 limits assumed): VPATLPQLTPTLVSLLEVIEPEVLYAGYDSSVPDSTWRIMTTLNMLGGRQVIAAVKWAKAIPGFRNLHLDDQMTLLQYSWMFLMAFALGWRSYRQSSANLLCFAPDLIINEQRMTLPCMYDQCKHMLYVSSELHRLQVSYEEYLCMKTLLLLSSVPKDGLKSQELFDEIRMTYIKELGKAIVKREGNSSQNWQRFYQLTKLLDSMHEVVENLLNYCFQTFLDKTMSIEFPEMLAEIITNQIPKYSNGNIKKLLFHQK
Briefly: LanthaScreen TR-FRET competitive binding assay. From the text: LanthaScreen TR-FRET competitive binding assay on GR (LanthaScreen TR-FRET GR Competitive Binding Assay)
A general note: Time-resolved FRET reads energy transfer from a long-lived donor to a nearby acceptor.

For experiment [2], the target named is T2, GR (pCMV-GR11 in Hela cells) (Homo sapiens, UniProt P04150).
T2 construct: gene NR3C1; GR expressed from pCMV-GR11 (Addgene #89105), transiently transfected in HeLa cells
T2 sequence (P04150 1-777): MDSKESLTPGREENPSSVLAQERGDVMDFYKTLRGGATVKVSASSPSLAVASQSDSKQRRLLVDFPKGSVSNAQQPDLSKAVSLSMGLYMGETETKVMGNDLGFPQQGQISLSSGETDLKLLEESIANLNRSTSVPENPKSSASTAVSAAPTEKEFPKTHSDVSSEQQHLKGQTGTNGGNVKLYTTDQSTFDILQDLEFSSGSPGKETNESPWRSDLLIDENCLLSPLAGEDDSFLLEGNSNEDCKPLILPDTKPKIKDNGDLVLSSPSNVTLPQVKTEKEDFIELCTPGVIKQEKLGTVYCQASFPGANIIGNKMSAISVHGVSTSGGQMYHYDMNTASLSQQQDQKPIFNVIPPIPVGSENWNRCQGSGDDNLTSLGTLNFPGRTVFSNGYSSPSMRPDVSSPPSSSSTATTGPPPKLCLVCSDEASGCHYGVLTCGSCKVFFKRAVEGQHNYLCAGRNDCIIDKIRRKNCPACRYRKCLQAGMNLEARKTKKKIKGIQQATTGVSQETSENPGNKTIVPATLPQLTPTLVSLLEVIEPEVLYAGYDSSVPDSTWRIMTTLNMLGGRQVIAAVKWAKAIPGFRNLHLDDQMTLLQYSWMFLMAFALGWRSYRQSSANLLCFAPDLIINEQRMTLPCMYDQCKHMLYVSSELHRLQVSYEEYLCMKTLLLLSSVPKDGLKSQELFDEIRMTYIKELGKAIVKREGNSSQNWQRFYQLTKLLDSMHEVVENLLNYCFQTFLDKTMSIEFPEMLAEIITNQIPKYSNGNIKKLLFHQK
Description: NF-κB-Luc tethered transrepression reporter assay. In kind it is cell-based. The settings on record: read-out: Cell transrepression / NF-κb (IC50 μM). From the text:
NF-κB-Luc tethered transrepression reporter assay on GR (pCMV-GR11 in Hela cells)
(A reporter such as luciferase makes a cellular process visible.)

The structures appear in SMILES notation.

On to `COc1ccccc1CN1Cc2cc(NS(=O)(=O)c3ccc(F)cc3)ccc2OC(C)C1=O` (stereo not drawn) [HP‐26], for which the figures for the IC50 in experiment [1] and in experiment [2] were 4.45 ± 0.36 µM and 12.2 ± 1.95 µM, respectively.
For `Cc1ccc(S(=O)(=O)N2CCCc3cc(NS(=O)(=O)c4ccc(F)cc4C)ccc32)cc1` [HP‐67] the same measures were 1.57 ± 0.54 µM and 2.76 ± 0.18 µM.
`CC(=O)N1CCc2cc(S(=O)(=O)C(C)CC(=O)NCC(C)c3ccccc3)ccc21` (stereo not drawn) [HP‐24]: the results for the IC50 in experiment [1] and in experiment [2] were 2.53 ± 0.12 µM and 2.71 ± 0.72 µM, respectively.
